For this experiment, the system named is porcine kidney. The source says: For the ex vivo normothermic perfusion of kidneys, data pertaining to the hemodynamics of the kidney were collected and monitored: kidney mass, urine output, arterial flow, arterial pressure, pump speed, hematocrit, and arterial oxygen saturation. To accomplish this, ZP-50N digital force gauges by Baoshishan were used to measure kidney mass and urine output; a Medtronic Bio-console device to measure flow, pressure, and pump speed; and a Medtronic Bio-trend device to measure hematocrit and oxygen saturation.
Data collection from these sensors was standardized at a rate of 0.2 Hz (approximately a data point every five seconds) and integrated via an open-source software written in Python. […] The act of collecting data from each sensor simultaneously presented a unique challenge in that a typical computer program is sequential in its execution, meaning that data collection from one sensor should not be able to occur until collection from another sensor is finished. Furthermore, the runtime complexity of the code block associated with each sensor meant that data collection from one sensor could potentially interfere with the collection from another, and vice-versa. To circumvent these issues, the code blocks for each sensor were run in separate threads using the Python threading library. This allowed each code block to be executed simultaneously in parallel (as opposed to sequentially in series), meaning data collection from one sensor was independent of data collection from all other sensors. After the data was extracted, the code block for each sensor transformed the data string by removing superfluous characters and converting the pertinent data into a float format. To upload the transformed data to the Azure cloud database the sys, platform, and pyodbc libraries were used to communicate with the edge device and establish a database connection using an SQL driver.
The “Blood gas data upload” feature allows one to manually input data collected from perfusate analysis assays. For our perfusion experiment, CG8+ and Renal Function Panel cartridges were used with iStat and Piccolo devices, respectively; however, the software can easily be modified to accommodate other perfusate assays.
Histamine was administered at two different time-points during the perfusion.

SMILES strings stand for the structures. Where two headings read alike, the source gives them in different places. Bounds are passed on as bounds.

For `NCCc1c[nH]cn1` [histamine], the “arterial flow after histamine” value is listed as “Flow immediately stopped” (40 mg histamine on the arterial side at 240 minutes of perfusion) and “immediate halt of flow” (100 mg histamine on the arterial side at 90 minutes of perfusion). For the same compound, under “after 40 mg histamine at 240 minutes, pump RPM slowly increased to 1900, no heparin”, the “time until flow normalized” value was found to be 30 min. Further, the “time until flow increased and arterial pressure normalized” value (after 100 mg histamine at 90 min, heparin at 120 minute, pump RPM 2000) was at most 60 min. Besides, where the note is “after 100 mg histamine at 90 min, 20k units heparin added at 120 minute, pump RPM increased to 2000, starting arterial pressure 15 mmHg”, the “arterial pressure while flow slowly returned” value is listed as 40-60 mmHg. For the setting “after first histamine administration, weight before histamine approximately 0.26 Kg”, the “kidney weight after flow and pressures normalized” value fell in the range of 0.27 to 0.28 kg. In addition, the “kidney weight after histamine (manual recordings)” value (after histamine at 90 minutes, weight before approximately 0.26 Kg) is “approximately 0.24 Kg”. For the same compound, the “arterial pressure immediately after histamine” value (arterial administration of histamine) is on record as “immediately increased”. Further, the “urine production (qualitative observation)” value (first histamine administration at 90 minutes) is listed as “initiate after the first histamine administration”.

The values above are taken from patent US20250378953A1, “ORGAN DIGITAL TWIN SYSTEMS AND METHODS FOR CREATING AND USING SUCH SYSTEMS” (Yale University, priority 2022, published 2025).
